Data taken from PMC8658909, “Organometallic small molecule kinase inhibitors – direct incorporation of Re and ^99mTc into Opaganib®” (Chemical Communications (Cambridge, England), 2021).

Target: T1, sphingosine kinase-2 (SK2) (Homo sapiens, UniProt Q9NRA0)
T1 construct: gene SPHK2
T1 sequence (Q9NRA0 1-654): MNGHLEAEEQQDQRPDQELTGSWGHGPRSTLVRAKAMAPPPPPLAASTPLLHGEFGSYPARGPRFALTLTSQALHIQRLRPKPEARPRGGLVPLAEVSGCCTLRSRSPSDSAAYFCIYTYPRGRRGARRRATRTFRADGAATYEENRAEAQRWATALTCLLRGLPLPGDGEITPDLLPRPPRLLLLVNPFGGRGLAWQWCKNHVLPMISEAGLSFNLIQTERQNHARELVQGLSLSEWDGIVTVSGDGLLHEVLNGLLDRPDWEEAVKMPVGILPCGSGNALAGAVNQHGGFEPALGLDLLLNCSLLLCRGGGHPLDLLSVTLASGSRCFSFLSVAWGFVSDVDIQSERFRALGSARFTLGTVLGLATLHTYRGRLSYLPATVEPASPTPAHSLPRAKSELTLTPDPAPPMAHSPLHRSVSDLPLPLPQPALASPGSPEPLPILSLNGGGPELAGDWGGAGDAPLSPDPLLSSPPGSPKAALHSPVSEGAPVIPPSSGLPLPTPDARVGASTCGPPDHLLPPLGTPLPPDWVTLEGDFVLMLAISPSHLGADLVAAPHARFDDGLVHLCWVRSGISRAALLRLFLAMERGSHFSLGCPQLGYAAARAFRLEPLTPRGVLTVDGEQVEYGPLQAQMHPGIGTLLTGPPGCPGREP
Assay: SK2 kinase inhibition IC50 (details in ESI)
Assay type: biochemical

IC50: 15.8 ± 3 µM
SMILES: O=C(NCc1ccncc1)C12CC3CC(C1)CC(c1ccc(Cl)cc1)(C3)C2 [Opaganib®, Opaganib]
